Measurements from patent US9353051B2, “Antiviral drugs for treatment or prevention of dengue infection” (Siga Technologies Inc., priority 2007, dated 2016).
Like-named read-outs stand apart in the source and are kept apart here.

System: Dengue-2 (Strain New Guinea C)
Test: viral yield assay against Dengue-2 in Vero cells
Assay type: cell-based
Conditions: Dengue virus; for EC90: read-out: EC90 Yield Den-2
Method: Compounds that were active in the primary screen were also tested for activity in viral yield assays. […] Vero cells in 12-well plates were infected with dengue-2 virus at a multiplicity of infection (MOI) of 0.1, treated with compound (or DMSO as a control), incubated at 37° C., harvested 48 hours post infection and titered on Vero cells as described above. The EC50 was calculated through ExcelFit. Those compounds with activity below 1 μM are indicated with “A”, those with activity between 1 and 10 μM are indicated with “B”, those with activity between 10 and 25 μM with “C”, and those with activity above 25 μM are indicated with “D”.

[1] = Vero cells, MOI 0.1, harvested 48 hours post infection, read-out: Activity (anti-dengue 2 viral activity, EC50)
[2] = viral yield assay, Vero cells, read-out: EC50 Yield Den-2

Row | Structure (SMILES) | EC50 [1] | further results
1 | CCN(CC)S(=O)(=O)c1ccc(NC(=O)Cn2cnc3sccc3c2=O)cc1 [Compound 5, N-(4-Diethylsulfamoyl-phenyl)-2-(4-oxo-4H-thieno[2,3-d]pyrimidin-3-yl)-acetamide] | 1 to 10 µM | 
2 | CCN(CC)S(=O)(=O)c1ccc(NC(=O)Cn2cnc3sc(C)c(C)c3c2=O)cc1 [Compound 10, N-(4-Diethylsulfamoyl-phenyl)-2-(5,6-dimethyl-4-oxo-4H-thieno[2,3-d]pyrimidin-3-yl)-acetamide] | 1 to 10 µM | EC50 [2]: 1.25 µM; EC90 (viral yield assay, Vero cells): > 50 µM
3 | CCc1cc2c(=O)n(CC(=O)Nc3ccc(S(=O)(=O)N(CC)CC)cc3)cnc2s1 [Compound 11, N-(4-Diethylsulfamoyl-phenyl)-2-(6-ethyl-4-oxo-4H-thieno[2,3-d]pyrimidin-3-yl)-acetamide] | 1 to 10 µM | EC50 [2]: 4.9 µM; EC90 (viral yield assay, Vero cells): > 50 µM
4 | CCN(CC)S(=O)(=O)c1ccc2c(c1)CCN2C(=O)Cn1cnc2ccccc2c1=O [Compound 17, 1-[2-(4-Oxo-4H-quinazolin-3-yl)-acetyl]-2,3-dihydro-1H-indole-5-sulfonic acid diethylamide] | 1 to 10 µM | EC50 [2]: 5.1 µM; EC90 (viral yield assay, Vero cells): 12.1 µM
5 | CC1CCCC(C)N1S(=O)(=O)c1ccc(NC(=O)Cn2cnc3ccccc3c2=O)cc1 (stereo not drawn) [Compound 18, N-[4-(2,6-Dimethyl-piperidine-1-sulfonyl)-phenyl]-2-(4-oxo-4H-quinazolin-3-yl)-acetamide] | 1 to 10 µM | 
6 | CC1CC(C)CN(S(=O)(=O)c2ccc(NC(=O)Cn3cnc4ccccc4c3=O)cc2)C1 (stereo not drawn) [Compound 19, N-[4-(3,5-Dimethyl-piperidine-1-sulfonyl)-phenyl]-2-(4-oxo-4H-quinazolin-3-yl)-acetamide] | 1 to 10 µM | 
7 | CCN(CC)S(=O)(=O)c1ccc(OC)c(NC(=O)Cn2nnc3ccccc3c2=O)c1 [Compound 20, N-(5-Diethylsulfamoyl-2-methoxy-phenyl)-2-(4-oxo-4H-benzo[d][1,2,3]triazin-3-yl)-acetamide] | 1 to 10 µM | EC50 (Vero, read-out: EC50 Yield Den-2): 1.3 µM; EC90 (Vero): 20 µM
8 | CCN(CC)S(=O)(=O)c1ccc(NC(=O)Cn2cnc3ccsc3c2=O)cc1 [Compound 22, N-(4-Diethylsulfamoyl-phenyl)-2-(4-oxo-4H-thieno[3,2-d]pyrimidin-3-yl)-acetamide] | 10 to 25 µM | 
9 | CCN(CC)S(=O)(=O)c1ccc(NC(=O)Cn2cnc3cc(Cl)ccc3c2=O)cc1 [Compound 23, 2-(7-Chloro-4-oxo-4H-quinazolin-3-yl)-N-(4-diethylsulfamoyl-phenyl)-acetamide] | 10 to 25 µM | 
10 | CCN(CC)S(=O)(=O)c1ccc(NC(=O)Cn2cnc3c(oc4ccccc43)c2=O)cc1 [Compound 24, N-(4-Diethylsulfamoyl-phenyl)-2-(4-oxo-4H-benzo [4,5]furo[3,2-d]pyrimidin-3-yl)-acetamide] | 10 to 25 µM | 
11 | CCN(CC)S(=O)(=O)c1ccc(OC(C)C)c(NC(=O)CCn2nnc3ccccc3c2=O)c1 [Compound 25, N-(5-Diethylsulfamoyl-2-isopropoxy-phenyl)-3-(4-oxo-4H-benzo[d][1,2,3]triazin-3-yl)-propionamide] | 10 to 25 µM | 
12 | CCN(CC)S(=O)(=O)c1ccc(NC(=O)Cn2cnc3c(C)cccc3c2=O)cc1 [Compound 26, N-(4-Diethylsulfamoyl-phenyl)-2-(8-methyl-4-oxo-4H-quinazolin-3-yl)-acetamide] | 10 to 25 µM | 
13 | CCN(CC)S(=O)(=O)c1ccc(OC)c(NC(=O)CCn2nnc3ccccc3c2=O)c1 [Compound 27, N-(5-Diethylsulfamoyl-2-methoxy-phenyl)-3-(4-oxo-4H-benzo[d][1,2,3]triazin-3-yl)-propionamide] | 10 to 25 µM | 
14 | CC1CCCC(C)N1S(=O)(=O)c1ccc(NC(=O)Cn2cnc3sccc3c2=O)cc1 (stereo not drawn) [Compound 28, N-[4-(2,6-Dimethyl-piperidine-1-sulfonyl)-phenyl]-2-(4-oxo-4H-thieno[2,3-d]pyrimidin-3-yl)-acetamide] | 10 to 25 µM | 
15 | CCN(CC(=O)Nc1ccc(S(=O)(=O)N(CC)CC)cc1)Cc1nc2ccccc2c(=O)[nH]1 [Compound 29, N-(4-Diethylsulfamoyl-phenyl)-2-[ethyl-(4-oxo-3,4-dihydro-quinazolin-2-ylmethyl)-amino]-acetamide] | 10 to 25 µM | 
16 | O=C(Cn1cnc2ccccc2c1=O)Nc1ccc(S(=O)(=O)NCC(F)(F)F)cc1 [Compound 30, 2-(4-Oxo-4H-quinazolin-3-yl)-N-[4-(2,2,2-trifluoro-ethylsulfamoyl)-phenyl]-acetamide] | 10 to 25 µM | 
17 | O=C(Cn1cnc2ccccc2c1=O)Nc1ccc(S(=O)(=O)N2CCCC2)cc1 [Compound 31, 2-(4-Oxo-4H-quinazolin-3-yl)-N-[4-(pyrrolidine-1-sulfonyl)-phenyl]-acetamide] | > 25 µM | 
18 | O=C(Cn1cnc2ccccc2c1=O)Nc1ccc(S(=O)(=O)Nc2nccs2)cc1 [Compound 32, 2-(4-Oxo-4H-quinazolin-3-yl)-N-[4-(thiazol-2-ylsulfamoyl)-phenyl]-acetamide] | > 25 µM | 
19 | Cc1cc(C)nc(NS(=O)(=O)c2ccc(NC(=O)Cn3cnc4ccccc4c3=O)cc2)n1 [Compound 33, N-[4-(4,6-Dimethyl-pyrimidin-2-ylsulfamoyl)-phenyl]-2-(4-oxo-4H-quinazolin-3-yl)-acetamide] | > 25 µM | 

Row | Structure (SMILES) | EC50 [1] | further results
20 | O=C(Cn1cnc2ccccc2c1=O)Nc1ccc(S(=O)(=O)N2CCOCC2)cc1 [Compound 34, N-[4-(Morpholine-4-sulfonyl)-phenyl]-2-(4-oxo-4H-quinazolin-3-yl)-acetamide] | > 25 µM | 
21 | CCCCN(C)S(=O)(=O)c1ccc(NC(=O)Cn2cnc3ccccc3c2=O)cc1 [Compound 35, N-[4-(Butyl-methyl-sulfamoyl)-phenyl]-2-(4-oxo-4H-quinazolin-3-yl)-acetamide] | > 25 µM | 
22 | CN(Cc1ccccc1)S(=O)(=O)c1ccc(NC(=O)Cn2cnc3ccccc3c2=O)cc1 [Compound 36, N-[4-(Benzyl-methyl-sulfamoyl)-phenyl]-2-(4-oxo-4H-quinazolin-3-yl)-acetamide] | > 25 µM | 
23 | CC1CCCCN1S(=O)(=O)c1ccc(NC(=O)Cn2cnc3ccccc3c2=O)cc1 (stereo not drawn) [Compound 37, N-[4-(2-Methyl-piperidine-1-sulfonyl)-phenyl]-2-(4-oxo-4H-quinazolin-3-yl)-acetamide] | > 25 µM | 
24 | NS(=O)(=O)c1ccc(NC(=O)Cn2cnc3ccccc3c2=O)cc1 [Compound 38, 2-(4-Oxo-4H-quinazolin-3-yl)-N-(4-sulfamoyl-phenyl)-acetamide] | > 25 µM | 
25 | O=C(Cn1cnc2ccccc2c1=O)Nc1ccc(S(=O)(=O)Nc2ncccn2)cc1 [Compound 39, 2-(4-Oxo-4H-quinazolin-3-yl)-N-[4-(pyrimidin-2-ylsulfamoyl)-phenyl]-acetamide] | > 25 µM | 
26 | O=C(Cn1cnc2ccccc2c1=O)Nc1ccc(S(=O)(=O)NCCCN2CCOCC2)cc1 [Compound 40, N-[4-(3-Morpholin-4-yl-propylsulfamoyl)-phenyl]-2-(4-oxo-4H-quinazolin-3-yl)-acetamide] | > 25 µM | 
27 | O=C(Cn1cnc2ccccc2c1=O)Nc1ccc(S(=O)(=O)NCc2ccco2)cc1 [Compound 41, N-{4-[(Furan-2-ylmethyl)-sulfamoyl]-phenyl}-2-(4-oxo-4H-quinazolin-3-yl)-acetamide] | > 25 µM | 
28 | CC(C)N(C)S(=O)(=O)c1ccc(NC(=O)Cn2cnc3ccccc3c2=O)cc1 [Compound 42, N-[4-(Isopropyl-methyl-sulfamoyl)-phenyl]-2-(4-oxo-4H-quinazolin-3-yl)-acetamide] | > 25 µM | 
29 | CC(NS(=O)(=O)c1ccc(NC(=O)Cn2cnc3ccccc3c2=O)cc1)C1CC2CCC1C2 (stereo not drawn) [Compound 43, N-[4-(1-Bicyclo[2.2.1]hept-2-yl-ethylsulfamoyl)-phenyl]-2-(4-oxo-4H-quinazolin-3-yl)-acetamide] | > 25 µM | 
30 | CC(C)NS(=O)(=O)c1ccc(NC(=O)Cn2cnc3ccccc3c2=O)cc1 [Compound 44, N-(4-Isopropyl-sulfamoyl-phenyl)-2-(4-oxo-4H-quinazolin-3-yl)-acetamide] | > 25 µM | 
31 | CN1CCN(S(=O)(=O)c2ccc(NC(=O)Cn3cnc4ccccc4c3=O)cc2)CC1 [Compound 45, N-[4-(4-Methyl-piperazine-1-sulfonyl)-phenyl]-2-(4-oxo-4H-quinazolin-3-yl)-acetamide] | > 25 µM | 
32 | CNS(=O)(=O)c1ccc(NC(=O)Cn2cnc3ccccc3c2=O)cc1 [Compound 46, N-(4-Methylsulfamoyl-phenyl)-2-(4-oxo-4H-quinazolin-3-yl)-acetamide] | > 25 µM | 
33 | CC1CCN(S(=O)(=O)c2ccc(NC(=O)Cn3cnc4ccccc4c3=O)cc2)CC1 [Compound 47, N-[4-(4-Methyl-piperidine-1-sulfonyl)-phenyl]-2-(4-oxo-4H-quinazolin-3-yl)-acetamide] | > 25 µM | 
34 | O=C(Cn1cnc2ccccc2c1=O)Nc1ccc(S(=O)(=O)NC2CCS(=O)(=O)C2)cc1 (stereo not drawn) [Compound 48, N-[4-(1,1-Dioxo-tetrahydro-1lambda*6*- thiophen-3-ylsulfamoyl)-phenyl]-2-(4-oxo-4H-quinazolin-3-yl)-acetamide] | > 25 µM | 
35 | CN(C1CCCCC1)S(=O)(=O)c1ccc(NC(=O)Cn2cnc3ccccc3c2=O)cc1 [Compound 49, N-[4-(Cyclohexyl-methyl-sulfamoyl)-phenyl]-2-(4-oxo-4H-quinazolin-3-yl)-acetamide] | > 25 µM | 
36 | CN(C)S(=O)(=O)c1ccc(NC(=O)Cn2cnc3ccccc3c2=O)cc1 [Compound 50, N-(4-Dimethylsulfamoyl-phenyl)-2-(4-oxo-4H-quinazolin-3-yl)-acetamide] | > 25 µM | 
37 | O=C(Cn1cnc2ccccc2c1=O)Nc1ccc(S(=O)(=O)N2CCCCCC2)cc1 [Compound 51, N-[4-(Azepane-1-sulfonyl)-phenyl]-2-(4-oxo-4H-quinazolin-3-yl)-acetamide] | > 25 µM | 
